Experimental data taken from US10670605B2, “Cysteine reactive probes and uses thereof” (The Scripps Research Institute, priority 2015, dated 2020).
Values belong to the compound of their own block, whether it stands above or below them.

Experiments:
Assay in all cases: Competitive isoTOP-ABPP in situ (fragment-treated cells)
Type in all cases: cell-based
[1] = molecular target: cysteines in MDA-MB-231 and Ramos cells (Homo sapiens, UniProt Q15003)
[2] = molecular target: cysteines in MDA-MB-231 and Ramos cells (Homo sapiens, UniProt Q8NFF5)
[3] = molecular target: T1, cysteines in MDA-MB-231 and Ramos cells (Homo sapiens, UniProt Q8IYQ7); settings: 200 μM, insitu, 231
T1 sequence (Q8IYQ7 1-743): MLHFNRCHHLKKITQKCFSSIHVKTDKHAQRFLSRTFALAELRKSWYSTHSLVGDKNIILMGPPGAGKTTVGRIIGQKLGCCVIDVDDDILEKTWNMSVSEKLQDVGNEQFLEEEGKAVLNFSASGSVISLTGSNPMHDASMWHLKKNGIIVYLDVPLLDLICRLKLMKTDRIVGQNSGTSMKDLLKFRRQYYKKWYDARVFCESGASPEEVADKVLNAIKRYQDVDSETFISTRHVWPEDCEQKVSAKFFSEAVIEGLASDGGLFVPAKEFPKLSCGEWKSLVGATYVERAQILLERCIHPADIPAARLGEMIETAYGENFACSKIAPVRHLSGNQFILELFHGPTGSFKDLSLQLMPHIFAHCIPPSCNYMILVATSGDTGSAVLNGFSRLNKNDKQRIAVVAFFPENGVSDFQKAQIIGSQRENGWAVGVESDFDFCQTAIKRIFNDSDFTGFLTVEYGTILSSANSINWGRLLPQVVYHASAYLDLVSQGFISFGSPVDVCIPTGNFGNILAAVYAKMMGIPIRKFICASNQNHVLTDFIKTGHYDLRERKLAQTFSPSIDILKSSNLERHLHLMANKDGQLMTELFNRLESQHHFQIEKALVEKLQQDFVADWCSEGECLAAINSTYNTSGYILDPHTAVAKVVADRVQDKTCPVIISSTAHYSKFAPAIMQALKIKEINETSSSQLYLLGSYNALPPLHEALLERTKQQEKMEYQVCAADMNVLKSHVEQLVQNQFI

[4] = molecular target: T2, cysteines in MDA-MB-231 and Ramos cells (Homo sapiens, UniProt Q8N2W9); settings: 200 μM, insitu
T2 sequence (Q8N2W9 1-510): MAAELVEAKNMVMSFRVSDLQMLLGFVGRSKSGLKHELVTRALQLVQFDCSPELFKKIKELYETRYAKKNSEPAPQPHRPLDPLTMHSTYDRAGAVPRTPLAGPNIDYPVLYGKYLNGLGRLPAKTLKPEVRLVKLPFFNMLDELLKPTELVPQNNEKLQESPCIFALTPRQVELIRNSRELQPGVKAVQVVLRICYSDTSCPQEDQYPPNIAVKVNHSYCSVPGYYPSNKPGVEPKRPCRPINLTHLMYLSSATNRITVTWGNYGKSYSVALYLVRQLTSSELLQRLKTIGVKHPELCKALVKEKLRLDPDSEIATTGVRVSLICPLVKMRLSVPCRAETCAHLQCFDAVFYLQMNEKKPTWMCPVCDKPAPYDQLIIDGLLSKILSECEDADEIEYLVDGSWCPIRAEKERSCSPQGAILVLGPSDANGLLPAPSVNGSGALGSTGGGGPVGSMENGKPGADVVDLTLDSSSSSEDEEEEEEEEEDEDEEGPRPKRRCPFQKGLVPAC

[5] = molecular target: T3, cysteines in MDA-MB-231 and Ramos cells (Homo sapiens, UniProt Q9NXJ5); settings: 200 μM, insitu
T3 sequence (Q9NXJ5 1-209): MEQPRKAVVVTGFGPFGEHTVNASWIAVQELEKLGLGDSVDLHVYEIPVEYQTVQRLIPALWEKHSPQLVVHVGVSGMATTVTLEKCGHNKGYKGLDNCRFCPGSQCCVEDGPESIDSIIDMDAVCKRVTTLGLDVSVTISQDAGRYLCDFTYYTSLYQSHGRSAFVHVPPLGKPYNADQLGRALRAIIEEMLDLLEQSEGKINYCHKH

[6] = molecular target: T4, cysteines in MDA-MB-231 and Ramos cells (Homo sapiens, UniProt Q9UPT9)
T4 sequence (Q9UPT9 1-525): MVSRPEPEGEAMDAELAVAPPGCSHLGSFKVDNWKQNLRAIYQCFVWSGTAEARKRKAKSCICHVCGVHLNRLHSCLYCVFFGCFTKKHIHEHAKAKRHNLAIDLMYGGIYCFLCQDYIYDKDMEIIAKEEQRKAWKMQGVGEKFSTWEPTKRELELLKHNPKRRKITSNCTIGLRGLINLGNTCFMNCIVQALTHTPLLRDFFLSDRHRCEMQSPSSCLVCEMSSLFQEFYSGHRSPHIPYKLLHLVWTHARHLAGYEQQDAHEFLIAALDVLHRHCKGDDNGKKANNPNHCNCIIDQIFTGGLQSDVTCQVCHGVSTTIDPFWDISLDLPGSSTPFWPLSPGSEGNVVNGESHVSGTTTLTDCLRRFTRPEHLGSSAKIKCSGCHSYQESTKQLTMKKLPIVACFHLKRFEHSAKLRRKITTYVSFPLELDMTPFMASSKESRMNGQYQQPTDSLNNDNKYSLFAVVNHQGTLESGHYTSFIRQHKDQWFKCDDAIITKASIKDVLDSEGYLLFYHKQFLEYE

[7] = molecular target: cysteines in MDA-MB-231 and Ramos cells (Homo sapiens, UniProt Q00610); settings: 200 μM, insitu, 231
[8] = molecular target: T5, cysteines in MDA-MB-231 and Ramos cells (Homo sapiens, UniProt Q9GZR2); settings: 200 μM, insitu
T5 sequence (Q9GZR2 1-422): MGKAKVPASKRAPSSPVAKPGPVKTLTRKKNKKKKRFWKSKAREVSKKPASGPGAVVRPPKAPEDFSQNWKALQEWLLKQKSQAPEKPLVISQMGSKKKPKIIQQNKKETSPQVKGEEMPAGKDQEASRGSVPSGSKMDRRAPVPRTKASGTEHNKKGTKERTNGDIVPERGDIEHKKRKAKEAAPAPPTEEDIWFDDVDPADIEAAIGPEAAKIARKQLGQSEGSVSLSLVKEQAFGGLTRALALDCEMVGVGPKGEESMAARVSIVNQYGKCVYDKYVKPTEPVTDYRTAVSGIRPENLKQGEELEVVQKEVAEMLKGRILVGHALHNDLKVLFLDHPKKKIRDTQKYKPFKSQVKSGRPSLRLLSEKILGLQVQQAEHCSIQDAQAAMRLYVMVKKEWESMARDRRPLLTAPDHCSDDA

cysteines in MDA-MB-231 and Ramos cells (Homo sapiens, UniProt Q8NFF5), sequence (Q8NFF5 18-587): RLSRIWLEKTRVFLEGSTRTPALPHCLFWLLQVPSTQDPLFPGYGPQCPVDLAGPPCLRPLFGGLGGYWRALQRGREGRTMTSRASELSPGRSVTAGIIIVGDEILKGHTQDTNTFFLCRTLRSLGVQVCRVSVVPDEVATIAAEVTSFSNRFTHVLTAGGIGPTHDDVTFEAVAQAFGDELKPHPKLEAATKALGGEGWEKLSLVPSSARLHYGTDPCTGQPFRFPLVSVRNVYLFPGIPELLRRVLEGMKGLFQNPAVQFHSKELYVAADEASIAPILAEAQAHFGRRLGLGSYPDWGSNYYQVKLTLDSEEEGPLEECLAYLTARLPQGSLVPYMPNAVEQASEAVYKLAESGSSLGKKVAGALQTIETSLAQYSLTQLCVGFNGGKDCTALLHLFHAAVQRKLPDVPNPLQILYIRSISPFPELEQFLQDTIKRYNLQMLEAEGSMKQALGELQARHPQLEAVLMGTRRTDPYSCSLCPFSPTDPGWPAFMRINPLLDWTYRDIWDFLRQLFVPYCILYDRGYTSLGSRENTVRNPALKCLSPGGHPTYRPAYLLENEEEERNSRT
cysteines in MDA-MB-231 and Ramos cells (Homo sapiens, UniProt Q15003), sequence (Q15003 whole entry): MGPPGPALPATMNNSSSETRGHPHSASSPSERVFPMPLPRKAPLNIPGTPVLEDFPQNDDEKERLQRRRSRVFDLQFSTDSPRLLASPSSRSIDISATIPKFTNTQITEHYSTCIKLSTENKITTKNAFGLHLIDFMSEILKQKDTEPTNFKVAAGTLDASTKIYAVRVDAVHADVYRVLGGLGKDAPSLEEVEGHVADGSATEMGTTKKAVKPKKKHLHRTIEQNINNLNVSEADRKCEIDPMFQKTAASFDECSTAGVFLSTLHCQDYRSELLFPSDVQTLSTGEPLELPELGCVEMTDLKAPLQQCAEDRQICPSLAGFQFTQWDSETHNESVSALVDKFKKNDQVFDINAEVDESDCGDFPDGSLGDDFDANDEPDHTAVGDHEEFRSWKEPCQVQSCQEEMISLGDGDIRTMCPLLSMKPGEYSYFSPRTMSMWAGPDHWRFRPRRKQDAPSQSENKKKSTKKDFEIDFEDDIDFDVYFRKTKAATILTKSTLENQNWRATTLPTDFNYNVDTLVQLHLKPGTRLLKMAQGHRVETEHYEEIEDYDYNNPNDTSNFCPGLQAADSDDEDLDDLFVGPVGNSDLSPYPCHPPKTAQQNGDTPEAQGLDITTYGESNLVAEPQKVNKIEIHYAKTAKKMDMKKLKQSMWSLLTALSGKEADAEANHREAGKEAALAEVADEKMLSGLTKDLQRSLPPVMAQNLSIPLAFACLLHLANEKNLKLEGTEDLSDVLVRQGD
cysteines in MDA-MB-231 and Ramos cells (Homo sapiens, UniProt Q00610), sequence (Q00610 whole entry): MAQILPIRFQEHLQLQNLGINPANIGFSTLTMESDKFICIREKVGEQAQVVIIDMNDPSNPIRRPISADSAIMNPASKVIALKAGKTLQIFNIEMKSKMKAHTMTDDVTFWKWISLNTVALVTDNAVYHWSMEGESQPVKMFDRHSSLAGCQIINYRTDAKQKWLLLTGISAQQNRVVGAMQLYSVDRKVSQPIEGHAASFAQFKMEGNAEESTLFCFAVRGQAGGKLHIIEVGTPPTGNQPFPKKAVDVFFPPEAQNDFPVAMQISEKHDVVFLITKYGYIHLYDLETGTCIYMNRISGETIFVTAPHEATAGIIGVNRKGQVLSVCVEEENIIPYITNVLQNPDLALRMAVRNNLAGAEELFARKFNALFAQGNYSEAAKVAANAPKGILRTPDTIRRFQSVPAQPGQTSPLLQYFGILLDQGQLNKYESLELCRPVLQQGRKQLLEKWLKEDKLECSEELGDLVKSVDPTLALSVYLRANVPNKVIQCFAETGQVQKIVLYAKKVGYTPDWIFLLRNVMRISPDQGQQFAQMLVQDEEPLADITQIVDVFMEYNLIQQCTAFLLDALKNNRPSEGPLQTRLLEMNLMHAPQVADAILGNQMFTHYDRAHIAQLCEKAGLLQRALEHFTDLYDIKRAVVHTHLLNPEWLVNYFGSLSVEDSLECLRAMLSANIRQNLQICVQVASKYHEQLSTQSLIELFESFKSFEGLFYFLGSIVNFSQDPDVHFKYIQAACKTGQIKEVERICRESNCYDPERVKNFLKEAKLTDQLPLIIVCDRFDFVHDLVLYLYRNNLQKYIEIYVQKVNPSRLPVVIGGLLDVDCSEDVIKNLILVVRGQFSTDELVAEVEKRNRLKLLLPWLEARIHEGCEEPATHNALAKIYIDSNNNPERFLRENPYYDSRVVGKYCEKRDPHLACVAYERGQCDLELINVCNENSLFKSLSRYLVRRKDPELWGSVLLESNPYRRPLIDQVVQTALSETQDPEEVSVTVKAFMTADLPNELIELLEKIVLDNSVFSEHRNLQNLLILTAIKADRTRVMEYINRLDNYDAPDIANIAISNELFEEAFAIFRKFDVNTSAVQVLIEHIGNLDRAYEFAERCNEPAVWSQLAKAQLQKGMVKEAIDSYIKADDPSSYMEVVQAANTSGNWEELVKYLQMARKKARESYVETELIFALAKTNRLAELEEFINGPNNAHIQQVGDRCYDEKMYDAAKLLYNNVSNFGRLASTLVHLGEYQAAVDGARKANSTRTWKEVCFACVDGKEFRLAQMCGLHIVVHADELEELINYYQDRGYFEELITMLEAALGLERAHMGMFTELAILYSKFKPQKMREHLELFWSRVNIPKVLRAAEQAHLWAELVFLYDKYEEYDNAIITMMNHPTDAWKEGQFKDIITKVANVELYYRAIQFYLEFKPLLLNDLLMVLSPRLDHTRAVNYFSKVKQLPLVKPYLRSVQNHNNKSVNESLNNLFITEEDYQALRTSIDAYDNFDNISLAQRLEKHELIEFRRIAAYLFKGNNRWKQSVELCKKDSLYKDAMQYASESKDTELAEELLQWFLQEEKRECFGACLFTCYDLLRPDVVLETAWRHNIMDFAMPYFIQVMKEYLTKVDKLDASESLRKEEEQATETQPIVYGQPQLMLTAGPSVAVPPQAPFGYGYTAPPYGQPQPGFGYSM

SMILES: COc1ccc2c(c1)CCCN2C(=O)CCl [compound 2]
isoTOP-ABPP reactivity Q15003_C418 NCAPH ([1]; 200 μM, insitu, 231): 20.0 | isoTOP-ABPP reactivity Q8NFF5_C499 FLAD1 ([2]; 200 μM, insitu, 231): 6.2

SMILES: COc1ccc(C2CC(c3cccs3)=NN2C(=O)CCl)cc1 (stereo not drawn) [compound 4]
isoTOP-ABPP reactivity Q15003_C418 NCAPH ([1]; 100 μM in situ 231): 20.0

SMILES: COc1cc2c(cc1OC)CN(C(=O)CCl)CC2 [compound 8]
isoTOP-ABPP reactivity Q8IYQ7_C324 THNSL1 [3]: 20.0

SMILES: O=C(CCl)N1CCC(Cc2ccccc2)CC1 [compound 9]
isoTOP-ABPP reactivity Q8IYQ7_C324 THNSL1 [3]: 1.6

SMILES: O=C(CCl)N1CCN(S(=O)(=O)c2ccccc2F)CC1 [compound 10]
isoTOP-ABPP ratio, cysteine Q8IYQ7_C324 [3]: 5.3 | isoTOP-ABPP ratio, cysteine Q8N2W9_C326 [4]; 231: 4.5 | isoTOP-ABPP ratio, cysteine Q9NXJ5_C149 ([5]; ramos): 11.0 | isoTOP-ABPP ratio, cysteine Q9UPT9_C171 ([6]; 200 μM, insitu, ramos): 9.3

SMILES: Cn1cc(S(=O)(=O)N2CCOCC2)cc1C(=O)NC(=O)CCl [compound 11]
isoTOP-ABPP ratio, cysteine Q15003_C418 ([1]; 100 μM in situ 231): 1 .6 | isoTOP-ABPP ratio, cysteine Q8NFF5_C499 ([2]; 100 μM in situ 231): 16 | isoTOP-ABPP ratio, cysteine Q9UPT9_C171 ([6]; 100 μM in situ 231): 0.8

SMILES: O=C(CCl)NC(=O)NC12CC3CC(CC(C3)C1)C2 [compound 12]
isoTOP-ABPP ratio, cysteine Q00610_C870 [7]: 0.9 | isoTOP-ABPP ratio, cysteine Q9GZR2_C382 [8]; 231: 20.0 | isoTOP-ABPP ratio, cysteine Q9NXJ5_C149 [5]; 231: 3.9

The next lines start with the values.

isoTOP-ABPP ratio, cysteine Q00610_C870 [7]: 1.7 | isoTOP-ABPP ratio, cysteine Q8IYQ7_C324 [3]: 1.3 | isoTOP-ABPP ratio, cysteine Q8N2W9_C326 ([4]; ramos): 20.0 | isoTOP-ABPP ratio, cysteine Q9GZR2_C382 ([8]; ramos): 0.9 | isoTOP-ABPP ratio, cysteine Q9NXJ5_C149 ([5]; ramos): 20.0 | isoTOP-ABPP ratio, cysteine Q9UPT9_C171 ([6]; 200 μM, insitu, ramos): 3.2
SMILES: O=C(CCl)NCCc1c[nH]c2ccccc12 [compound 13]

isoTOP-ABPP ratio, cysteine Q8IYQ7_C324 [3]: 2.0 | isoTOP-ABPP ratio, cysteine Q8N2W9_C326 [4]; 231: 1.0
SMILES: O=C(CCl)NC12CC3CC(CC(C3)C1)C2 [compound 21]

isoTOP-ABPP ratio Q15003_C418 ([1]; 200 μM, insitu, ramos): 1.4 | isoTOP-ABPP ratio Q8NFF5_C499 ([2]; 200 μM, insitu, ramos): 3.4
SMILES: O=C(CCl)N1CCN(CC(=O)N2CCOCC2)CC1 [compound 29]

isoTOP-ABPP ratio Q00610_C870 [7]: 20.0 | isoTOP-ABPP ratio Q8N2W9_C326 [4]; 231: 0.9
SMILES: C=CC(=O)Nc1cc(F)c(N2CCN(C(=O)OC(C)(C)C)CC2)c(F)c1 [compound 38]

isoTOP-ABPP ratio Q8N2W9_C326 [4]; 231: 0.8
SMILES: Cc1ccc(C=C(C#N)C(=O)NCCN2CCOCC2)cc1 [compound 41]

isoTOP-ABPP ratio Q15003_C418 ([1]; 200 μM, insitu, 231): 20.0 | isoTOP-ABPP ratio Q9GZR2_C382 [8]; 231: 20.0
SMILES: CC1CCc2ccccc2N1C(=O)CCl (stereo not drawn) [compound 45]
